Species on record: Rattus norvegicus
Test: DrugMatrix - Regimen: Daily Repeat
Assay type: toxicity, organism-based, Sprague-Dawley
Set-up: regimen Daily Repeat, gender Male, age 6-8 weeks
Settings: in vivo, po, route oral GAVAGE, vehicle 100 % WATER; for ABSOLUTE BASOPHIL / ABSOLUTE EOSINOPHIL / ABSOLUTE LYMPHOCYTE / ABSOLUTE MONOCYTE / ABSOLUTE SEGMENTED NEUTROPHIL / BASOPHIL / EOSINOPHIL / ERYTHROCYTE COUNT / HEMATOCRIT / HEMOGLOBIN / LEUKOCYTE COUNT / LYMPHOCYTE / MEAN CORPUSCULAR HEMOGLOBIN / MEAN CORPUSCULAR HEMOGLOBIN CONCENTRATION / MEAN CORPUSCULAR VOLUME / MONOCYTE / NEUTROPHIL / NUCLEATED RED BLOOD CELLS / PLATELET COUNT: tissue Blood; for ALANINE AMINOTRANSFERASE / ALBUMIN / ALKALINE PHOSPHATASE / ASPARTATE AMINOTRANSFERASE / BLOOD UREA NITROGEN / CARBON DIOXIDE / CHLORIDE / CHOLESTEROL / CREATINE PHOSPHOKINASE / CREATININE / GLUCOSE / LACTATE DEHYDROGENASE / LIPASE / PHOSPHORUS / POTASSIUM / SODIUM / TOTAL BILIRUBIN / TOTAL PROTEIN / URIC ACID: tissue Plasma
[1] = 0 mg/kg, 72 h, dose level Control, time 3 day
[2] = 0 mg/kg, 120 h, dose level Control, time 5 day
[3] = 8 mg/kg, 72 h, dose level Low, time 3 day

Compound: CCN(C(C)=O)c1cccc(-c2ccnc3c(C#N)cnn23)c1 [ZALEPLON]
- ABSOLUTE BASOPHIL [1]: 0 CELLS/uL
- ABSOLUTE EOSINOPHIL [1]: 58.83 CELLS/uL
- ABSOLUTE LYMPHOCYTE [1]: 11823.5 CELLS/uL
- ABSOLUTE MONOCYTE [1]: 169 CELLS/uL
- ABSOLUTE SEGMENTED NEUTROPHIL [1]: 815.33 CELLS/uL
- BASOPHIL [1]: 0%
- EOSINOPHIL [1]: 0.5%
- ERYTHROCYTE COUNT [1]: 5.52 x10E6/uL
- HEMATOCRIT [1]: 35.77%
- HEMOGLOBIN [1]: 14.28 G/DL
- LEUKOCYTE COUNT [1]: 12.87 x10E3/uL
- LYMPHOCYTE [1]: 91.67%
- MEAN CORPUSCULAR HEMOGLOBIN [1]: 25.92 pg
- MEAN CORPUSCULAR HEMOGLOBIN CONCENTRATION [1]: 39.95 G/DL
- MEAN CORPUSCULAR VOLUME [1]: 64.85 fL
- MONOCYTE [1]: 1.33%
- NEUTROPHIL [1]: 6.5%
- NUCLEATED RED BLOOD CELLS [1]: 0 /100WBC
- PLATELET COUNT [1]: 1246.17 x10E3/uL
- ALANINE AMINOTRANSFERASE [1]: 66 u/L
- ALBUMIN [1]: 4.25 G/DL
- ALKALINE PHOSPHATASE [1]: 416 u/L
- ASPARTATE AMINOTRANSFERASE [1]: 106.17 u/L
- BLOOD UREA NITROGEN [1]: 12.67 mg/dL
- CARBON DIOXIDE [1]: 31.83 mmol/L
- CHLORIDE [1]: 102.5 MEQ/L
- CHOLESTEROL [1]: 69 mg/dL
- CREATINE PHOSPHOKINASE [1]: 601.83 u/L
- CREATININE [1]: 0.18 mg/dL
- GLUCOSE [1]: 154.5 mg/dL
- LACTATE DEHYDROGENASE [1]: 301.83 u/L
- LIPASE [1]: 11.17 u/L
- PHOSPHORUS [1]: 12.08 mg/dL
- POTASSIUM [1]: 6.12 MEQ/L
- SODIUM [1]: 145.2 MEQ/L
- TOTAL BILIRUBIN [1]: 0.17 mg/dL
- TOTAL PROTEIN [1]: 6.1 G/DL
- URIC ACID [1]: 1.57 mg/dL
- ABSOLUTE BASOPHIL [2]: 0 CELLS/uL
- ABSOLUTE EOSINOPHIL [2]: 19.33 CELLS/uL
- ABSOLUTE LYMPHOCYTE [2]: 12577.83 CELLS/uL
- ABSOLUTE MONOCYTE [2]: 106.33 CELLS/uL
- ABSOLUTE SEGMENTED NEUTROPHIL [2]: 896.5 CELLS/uL
- BASOPHIL [2]: 0%
- EOSINOPHIL [2]: 0.17%
- ERYTHROCYTE COUNT [2]: 5.84 x10E6/uL
- HEMATOCRIT [2]: 36.88%
- HEMOGLOBIN [2]: 14.48 G/DL
- LEUKOCYTE COUNT [2]: 13.6 x10E3/uL
- LYMPHOCYTE [2]: 92.17%
- MEAN CORPUSCULAR HEMOGLOBIN [2]: 24.85 pg
- MEAN CORPUSCULAR HEMOGLOBIN CONCENTRATION [2]: 39.3 G/DL
- MEAN CORPUSCULAR VOLUME [2]: 63.23 fL
- MONOCYTE [2]: 0.83%
- NEUTROPHIL [2]: 6.83%
- NUCLEATED RED BLOOD CELLS [2]: 0 /100WBC
- PLATELET COUNT [2]: 1223.5 x10E3/uL
- ALANINE AMINOTRANSFERASE [2]: 55.33 u/L
- ALBUMIN [2]: 4.08 G/DL
- ALKALINE PHOSPHATASE [2]: 355.5 u/L
- ASPARTATE AMINOTRANSFERASE [2]: 87.67 u/L
- BLOOD UREA NITROGEN [2]: 15.33 mg/dL
- CARBON DIOXIDE [2]: 33.83 mmol/L
- CHLORIDE [2]: 99.67 MEQ/L
- CHOLESTEROL [2]: 72.17 mg/dL
- CREATINE PHOSPHOKINASE [2]: 268.33 u/L
- CREATININE [2]: 0.15 mg/dL
- GLUCOSE [2]: 152.5 mg/dL
- LACTATE DEHYDROGENASE [2]: 212.67 u/L
- LIPASE [2]: 10.83 u/L
- PHOSPHORUS [2]: 11.65 mg/dL
- POTASSIUM [2]: 6.73 MEQ/L
- SODIUM [2]: 142.43 MEQ/L
- TOTAL BILIRUBIN [2]: 0.23 mg/dL
- TOTAL PROTEIN [2]: 6.07 G/DL
- URIC ACID [2]: 1.7 mg/dL
- ABSOLUTE BASOPHIL [3]: 0 CELLS/uL
- ABSOLUTE EOSINOPHIL [3]: 0 CELLS/uL
- ABSOLUTE LYMPHOCYTE [3]: 15455.33 CELLS/uL
- ABSOLUTE MONOCYTE [3]: 295 CELLS/uL
- ABSOLUTE SEGMENTED NEUTROPHIL [3]: 1116.33 CELLS/uL
- BASOPHIL [3]: 0%
- EOSINOPHIL [3]: 0%
- ERYTHROCYTE COUNT [3]: 5.86 x10E6/uL
- HEMATOCRIT [3]: 37.3%
- HEMOGLOBIN [3]: 14.83 G/DL
- LEUKOCYTE COUNT [3]: 16.87 x10E3/uL
- LYMPHOCYTE [3]: 91.67%
- MEAN CORPUSCULAR HEMOGLOBIN [3]: 25.33 pg
- MEAN CORPUSCULAR HEMOGLOBIN CONCENTRATION [3]: 39.77 G/DL
- MEAN CORPUSCULAR VOLUME [3]: 63.67 fL
- MONOCYTE [3]: 1.67%
- NEUTROPHIL [3]: 6.67%
- NUCLEATED RED BLOOD CELLS [3]: 0 /100WBC
- PLATELET COUNT [3]: 1367.67 x10E3/uL
- ALANINE AMINOTRANSFERASE [3]: 54.67 u/L
- ALBUMIN [3]: 4.17 G/DL
- ALKALINE PHOSPHATASE [3]: 303 u/L
- ASPARTATE AMINOTRANSFERASE [3]: 88.33 u/L
- BLOOD UREA NITROGEN [3]: 12 mg/dL
- CARBON DIOXIDE [3]: 32.67 mmol/L
- CHLORIDE [3]: 101.67 MEQ/L
- CHOLESTEROL [3]: 70.67 mg/dL
- CREATINE PHOSPHOKINASE [3]: 534 u/L
- CREATININE [3]: 0.2 mg/dL
- GLUCOSE [3]: 151 mg/dL
- LACTATE DEHYDROGENASE [3]: 218 u/L
- LIPASE [3]: 13.67 u/L
- PHOSPHORUS [3]: 12.87 mg/dL
- POTASSIUM [3]: 6.77 MEQ/L
- SODIUM [3]: 145.17 MEQ/L
- TOTAL BILIRUBIN [3]: 0.17 mg/dL
- TOTAL PROTEIN [3]: 5.9 G/DL
- URIC ACID [3]: 1.7 mg/dL

From ChEMBL document CHEMBL3885881, “DrugMatrix”
